Experimental data taken from patent US10273313B2, “Multimeric mannosides, a process for preparing the same and their uses as a drug” (CENTRE NATIONAL DE LA RECHERCHE SCIENTIFIQUE, priority 2012, dated 2019).

Columns and labels:
[1] = system: CD-associated E. coli strain AIEC LF82; test: Hemagglutination inhibition (HAI) with AIEC LF82, guinea pig erythrocytes; format: cell-based, Escherichia coli
Description: AIEC adhesion to the gut occurs through the binding of FimH adhesins to the mannosylated glycans of intestinal cells. This scenario was first mimicked here with the highly mannosylated glycocalyx of guinea pig erythrocytes.
A two-fold dilution series of the antagonists was added to wells containing guinea pig erythrocytes and AIEC LF82 bacteria. The formation of the cross-linked network (hemagglutination) due to the interaction of the E. coli FimH adhesins with the glycocalyx of the erythrocytes was prevented at a certain concentration of inhibitors. The lowest concentration at which hemagglutination is still inhibited is defined as the inhibition titer of the antagonist. HM was included in the assay to obtain a relative inhibitory concentration (rIC) for the antagonists by dividing the inhibitory concentration (IC) of the substance of interest by the value for HM. In fact, rICs are more accurate than rough inhibition titers to compare the potency of antagonists evaluated in different assays.

FimH [2] = biological target: T1, FimH (Escherichia coli, UniProt P08191); format: binding; conditions: competitive ELISA
Description: Journal of the American Society for Mass Spectrometry, 2009. […] Tested compounds were added to wells following with FimH treatment.
Plates were coated with 100 μl of 10 mg/ml solution of RNAse-B in 100 mM carbonate/bicarbonate buffer pH 9.6. […] 2 h. Then washed three times with 10 mM PBS containing 0.05% Tween-20. […] Wells were washed three times with 10 mM PBS+0.05% Tween-20. 100 μl of anti-body conjugated to horseradish peroxidase (1:5000) was added in buffer and incubated for 1 h at room temperature. Then washed three times with 10 mM PBS+0.05% Tween-20. Added 100 μl of TMB and incubated in dark for 2-5 min. The reaction was stopped with 100 μl/well 1N sulfuric acid. Plate absorbance was analyzed at 450 nm using microplate reader.
Target sequence in this assay (P08191 22-300): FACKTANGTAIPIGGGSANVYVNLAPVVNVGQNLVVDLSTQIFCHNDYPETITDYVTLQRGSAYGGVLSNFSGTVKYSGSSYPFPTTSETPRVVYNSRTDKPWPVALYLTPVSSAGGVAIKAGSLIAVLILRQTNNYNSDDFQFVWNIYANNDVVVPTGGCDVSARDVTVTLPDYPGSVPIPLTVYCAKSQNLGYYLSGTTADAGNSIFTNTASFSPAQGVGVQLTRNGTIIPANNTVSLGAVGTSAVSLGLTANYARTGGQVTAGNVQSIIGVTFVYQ

[3] = system: AIEC LF82 bacteria on colonic tissue from transgenic mice expressing human CEACAM6; test: Ex-vivo adhesion assay on colonic tissue of CEABAC10 mice; design: species or system CEABAC10 transgenic mice
Description: E. coli strain LF82 was isolated from a chronic ileal lesion of a patient with Crohn's disease (CD). Bacteria were grown routinely in Luria-Bertani (LB) broth overnight at 37° C.
Adhesion assay of AIEC LF82 bacteria were performed using colonic tissue from transgenic mice expressing the human CEACAM6 protein (C. H. Chan, C. P. Stanners “Novel mouse model for carcinoembryonic antigen-based therapy”, Mol Ther. 2004; 9, 775-785). Briefly, 10 to 12-week-old FVB/N CEABAC10 transgenic mice were anesthetized, euthanized by cervical dislocation and colons were removed. Colons were washed twice in phosphate buffer saline (PBS) and were segmented in 4 independent loops of ≈0.6 cm. A volume of 100 μL of LF82 bacteria at 2×10^6 bacteria/mL in PBS or of a mix of LF82 bacteria+D-mannose (1 μmol and 10 μmol) or compound 13 (0.1 μmol and 0.01 μmol) were injected into the loops. Loops were incubated 1 h at 37° C. in an atmosphere containing 5% of CO2, and then opened and washed 4 times in PBS. Tissues were homogenized, appropriately diluted and plated onto Luria-Bertani agar plates containing ampicillin (100 μg/mL) and erythromycin (20 μg/mL) to select AIEC LF82 bacteria.
Entire colons from CEABAC10 mice were collected and washed two times with PBS. The colon was divided in 4 isolated loops and 100 μL of a bacterial suspension containing […] bacteria/mL with or without inhibitory compounds were injected into the loops. D-mannose was tested at a dose of 1 and 10 μmol and monovalent 13 was tested at a dose of 0.01 and 0.1 μmol. After a 1 h-period of incubation, samples were extensively washed and homogenized to numerate adherent bacteria. Bacterial adhesion was expressed as percentages of residual adhesion (100% corresponds to the adhesion in absence of any compound).

Caco-2 cells = test: Blockage of cytotoxic effect of microparticle-FimH, flow cytometry; format: cell-based; conditions: Caco2
Source text: It was shown that upon binding of FimH adhesin to uroplakin UPIIIa its cytoplasmic tail undergoes phosphorylation on a specific threonine residue by casein kinase II, followed by an elevation of intracellular calcium triggering apoptosis (Thumbikat, P.; Berry, R. E.; Zhou, G.; Billips, B. K.; Yaggie, R. E.; Zaichuk, T.; Sun, T.-T.; Schaeffer, A. J.; Klumpp, D. J. PLoS Pathog 2009, 5, e1000415). […] It is needed to mentioned that according to our observations that Caco2 cells, unlike human blood cells, (Bilyy R. O.; Shkandina, T.; Tomin, A.; Muñoz, L E.; Franz, S.; Antonyuk, V.; Kit, Y. Y.; Zirngibl, M.; Fürnrohr, B. G.; Janko, C.; Lauber, K.; Schiller, M.; Schett, G.; Stoika, R. S.; Herrmann, M., J. Biol. Chem. 2012, 287, 496-503) are very quickly converted from apoptotic to secondary necrotic (PI-positive). […]
Cell viability was assessed by a trypan blue exclusion test. […]
Apoptotic cells were identified by using annexin V-FITC and PI, according to the manufacturer's protocol. […] Cells were then resuspended in a solution of annexin V-FITC and PI prepared in Ringer buffer, incubated 30 min at 4° C. in the dark, and analyzed on a FACS scan flow cytometer (BD Biosciences). A minimum of 10,000 events per sample was recorded. […]

human Jurkat T-cell line = test: Toxicity of 13 towards Jurkat T-cells; format: cell-based; conditions: 100 nM
[4] = system: AIEC strain LF82 adhesion to T84 intestinal epithelial cells; test: Adhesion assay on T84 cells with thiazolylaminomannosides (Example 22.3); format: cell-based, Escherichia coli
Description: T84 Intestinal Epithelial cells (overexpressing the receptor CEACAM6) were beforehand incubated for 1 h with the synthetic thiazolylaminomannosides 6-20 (examples 3-17) at different concentrations. Each compound was tested four times at concentrations of 0.1, 1, 10 and 100 μM.
The cells were then infected in the presence of inhibitory compounds by the AIEC strain of reference LF82 for 3 hours at a multiplicity of infection of 10 bacteria to a cell. After 3 h of incubation, the monolayer was washed and the number of AIEC bacteria associated with cells was counted. The level of adhesion of AIEC LF82 strain in the presence of inhibitors (residual adhesion) was expressed relatively to the level of adherence in the absence of any treatment (considered 100%) (FIG. 10).

FimH [5] = biological target: T1, FimH; test: Isothermal titration calorimetry of compound 6; format: binding
Description: For compound 6 (example 3), the enthalpy, the affinity equilibrium constant Ka and the molar ratio have moreover been measured using ITC. Integrated heat effects were analyzed by nonlinear regression using a single-site binding model (Origin 7.0). The experimental data fitted to a theoretical titration curve gave the association constant (Ka), the enthalpy of binding (ΔH) and the molar ratio n. The entropic contribution to the affinity and the change in Gibbs free energy (ΔG) have been calculated from the equation ΔG=ΔH−TΔS=−RTlnKa, where T is the absolute temperature and R is the molar gas constant (8.314 J·mol−1·K−1).
Target sequence in this assay (P08191 22-179): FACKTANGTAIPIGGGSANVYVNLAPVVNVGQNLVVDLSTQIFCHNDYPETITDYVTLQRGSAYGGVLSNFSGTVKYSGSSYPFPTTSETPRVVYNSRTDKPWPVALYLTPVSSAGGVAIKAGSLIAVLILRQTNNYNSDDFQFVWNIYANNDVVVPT

lectin domain of FimH = biological target: T2, lectin domain of FimH (Escherichia coli, UniProt P08191); test: Surface plasmon resonance solution competition assay; format: binding; conditions: solution affinity
T2 construct: The lectin domain of FimH was expressed as described previously and purified at pH 4.0; made in house
Description: The affinity of the compounds was first evaluated and then measured in a surface plasmon resonance solution competition assay. The lectin domain of FimH was expressed as described previously and purified at pH 4.0 in 50 mM HCOOH on a SPFF (sulfopropyl fast flow) ion exchange column (GE Healthcare). A CM5 sensor chip (Biacore, GE Healthcare) has been coated with a layer of amino-functionalized monovalent heptyl mannoside to 60 RU (response units) and the kinetics of FimH binding to the sensor chip has been determined. All data collection have been performed in HBS buffer complemented with 3 mM EDTA and 0.01% Tween20. Regeneration was done with a single 10 s injection of 100 mM NaOH in water.
The solution affinity provided by the Biacore software uses the equation (B−A−Kd)/2+(0.25*(A+B+Kd)^2−A*B)^0.5, with B presenting the uninhibited concentration of FimH, and A the variable compound concentration.

UTI89 E. coli = test: Inhibition of haemagglutination (Example 19); format: cell-based, Escherichia coli; conditions: two-fold dilution from 1 mM
Description: Interaction of E. coli FimH adhesins with the glycocalyx of guinea pig erythrocytes forms a cross-linked network into the wells. Glycoconjugates added in a two-fold dilution series prevents the agglutination reaction. The inhibition titer is defined as the lowest concentration of the glycoconjugate at which haemagglutination is still inhibited. UTI89 E. coli were grown statically overnight in LB at 37° C., washed three times in ice-cold phosphate-buffered saline and resolubilized. A two-fold dilution of glycoconjugates was prepared in 25 μL 20 mM HEPES pH 7.4 with 150 mM NaCl, starting from 1 mM as the highest concentration. The bacterial solution (25 μL) was added to the two-fold dilution series of the compound. Finally 50 μl of guinea pig red blood cells, washed in buffer and diluted to 5%, were added to a final 100 μL and left on ice for 30 min. before read-out. Due to serial dilutions, the maximal error is ±one well, or a factor two (FIG. 2).

human Jurkat cells = test: Prevention of FimH-induced apoptosis of Jurkat cells (24 h)
Description: Eventually, we tested the ability of mannose-based inhibitors to prevent the induction of cell death of human Jurkat cells under the treatment with FimH. We cultures cells with the indicated compound for 24 h and counter percentage of viable (AnV−/Pi−), apoptotic (AnV+/Pi−) and necrotic cells (AnV+/PI+). […] 2. […] 3.
Apoptosis was induced by UV-B irradiation with 90 mJ/cm^2, apoptosis of human PMN cells was induced by 24 h aging. To quantify the rate of apoptosis, cells were analyzed by flow cytometry or fluorescent microscopy. Amongst other features, apoptosis is characterized by blebbing of the cellular membrane, leading to a decrease in the forward scatter (FSC) and an increase in the sideward scatter (SSC). For detection of phosphatidylserine (PS) exposure on the cell surface staining with FITC conjugated annexin V (Böhringer, Mannheim, Germany) in combination with propidium iodide (PI) (AxV/PI) was performed. 200.000 cells were stained for 30 minutes at 4° C. with 200 ng of AxV-FITC and 500 ng propidium iodide (PI) in 500 μl Ringer's solution [Nicoletti, Migliorati, Pagliacci, Grignani and Riccardi, A rapid and simple method for measuring thymocyte apoptosis by propidium iodide staining and flow cytometry. J Immunol Methods, 1991. 139.271-9]. The samples were immediately analyzed by flow cytometry of fluorescent microscopy.

T2 sequence (P08191 22-179): as above

Cc1nc(-c2cnccn2)sc1C(=O)c1cnc(N[C@H]2OC(CO)[C@@H](O)[C@H](O)C2O)s1 (mixture of isomers) [Compound 13, 2-(α-D-mannopyranosyl)amino-5-(4-methyl-2-(pyrazin-2-yl)thiazole-5-carbonyl)thiazole] was tested, and the “Inhibitory potency in HAI (in words)” value [1] was “second most potent compound”, the “Level of inhibition compared to the HM reference” value (FimH [2]) was “significantly higher level of inhibition” and the “Concentration blocking FimH binding towards oligomannose glycans” value (FimH [2]; RNAseB substrate) was 5 nM. The “Efficiency relative to D-mannose” value [3] was 100 fold, the Bacterial adhesion ([3]; 0.1 μmol, 1 h) was “significant decrease” and the “Effect on amount of dead cell in population” value (Caco-2 cells; 100 nM alone) was “no significant effect”. The “Dead cells in population” value (Caco-2 cells; co-treatment with microparticles-FimH and 100 nM) was 16.5%, the “Toxicity towards human blood cells (Jurkat T-cell line)” value (human Jurkat T-cell line) was “nontoxic” and the Residual adhesion ([4]; 0.1 μM) was 57.6%. For the same compound, the “Inhibitory effect on adhesion” value ([4]; 100 nM) was “significant inhibitory effect”, the “AIEC remaining attached to the cells (residual adhesion)” value ([4]; 1 μM) was 14% and the Residual adhesion ([4]; 10 μM) was 2.12%. For the same compound, the “rIC relative to HM” value ([4]; dose-dependent inhibition similar to HM at 100-fold lower concentration) was roughly 0.01.

For CC(=O)c1cnc(N[C@H]2O[C@H](CO)[C@@H](O)[C@H](O)[C@@H]2O)s1 [Compound 6, 5-acetyl-2-((α-D-mannopyranosyl)amino)thiazole], the “Inhibitory potency in HAI (in words)” value [1] was “less potent than HM”, the Kd (FimH [5]) was 197 nM and the Kd (lectin domain of FimH; measurement 1) was 216 nM. For the same compound, the Kd (lectin domain of FimH; measurement 2) was 220 ± 7.71 nM, the “Inhibitory potency in haemagglutination (FIG. 2)” value (UTI89 E. coli) was “equivalent to the one for HM” and the “Prevention of apoptosis induction by FimH” value (human Jurkat cells; 500 nM) was “effectively prevented apoptosis induction”. For the same compound, the “Toxicity to Jurkat cells” value (human Jurkat cells; tested concentrations, 24 h) was “not toxic”.
